# Key:
# Format in all cases: in vivo
# [1] = system: chickweed (Stellaria media); assay: Test C postemergence; details: for Plant response rating, Chickweed: scale 0 to 100
# Outline: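 We sprayed seeded pots preemergence and 2–18 cm seedlings postemergence with test chemicals in a non-phytotoxic solvent mixture including surfactant. Greenhouse plants were visually compared with untreated controls at 12 to 14 days and scored 0 (no effect) to 100 (complete control).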
# [2] = system: giant foxtail (Setaria faberii); assay: Test C pre/postemergence
# Text: (§1) Seeds or nutlets of plant species selected from bermudagrass (Cynodon dactylon), Surinam grass (Brachiaria decumbens), cocklebur (Xanthium strumarium), corn (Zea mays), crabgrass (Digitaria sanguinalis), woolly cupgrass (Eriochloa villosa), giant foxtail (Setaria faberii), goosegrass (Eleusine indica), johnsongrass (Sorghum halepense), kochia (Kochia scoparia), lambsquarters (Chenopodium album), morningglory (Ipomoea coccinea), eastern black nightshade (Solanum ptycanthum), yellow nutsedge (Cyperus esculentus), pigweed (Amaranthus retroflexus), common ragweed (Ambrosia elatior), soybean (Glycine max), common (oilseed) sunflower (Helianthus annuus), and velvetleaf (Abutilon theophrasti) were planted and treated preemergence with test chemicals formulated in a non-phytotoxic solvent mixture which included a surfactant.
# (§2) At the same time, plants selected from these crop and weed species and also winter barley (Hordeum vulgare), blackgrass (Alopecurus myosuroides), canarygrass (Phalaris minor), chickweed (Stellaria media), downy brome (Bromus tectorum), green foxtail (Setaria viridis), Italian ryegrass (Lolium multiflorum), wheat (Triticum aestivum), wild oat (Avena fatua) and windgrass (Apera spica-venti) were treated with postemergence applications of some of the test chemicals formulated in the same manner. Plants ranged in height from 2 to 18 cm (1- to 4-leaf stage) for postemergence treatments. Plant species in the flooded paddy test consisted of rice (Oryza sativa), umbrella sedge (Cyperus difformis), duck salad (Heteranthera limosa) and barnyardgrass (Echinochloa crus-galli) grown to the 2-leaf stage for testing. Treated plants and controls were maintained in a greenhouse for 12 to 14 days, after which time all species were compared to controls and visually evaluated. Plant response ratings, summarized in Table C, are based on a scale of 0 to 100 where 0 is no effect and 100 is complete control. A dash (-) response means no test result.
# [3] = system: crabgrass (Digitaria sanguinalis); assay: Test C pre/postemergence
# Text: as §1, §2
# [4] = system: yellow nutsedge (Cyperus esculentus); assay: Test C pre/postemergence
# Text: as §1, §2
# [5] = system: Surinam grass (Brachiaria decumbens); assay: Test C pre/postemergence
# Text: as §1, §2
# [6] = 62 g ai/ha, scale 0 to 100 (0 no effect, 100 complete control)
# [7] = 125 g ai/ha, scale 0 to 100 (0 no effect, 100 complete control)
# [8] = Postemergence, 62 g ai/ha, scale 0 to 100 (0 no effect, 100 complete control)
# [9] = Postemergence, 125 g ai/ha, scale 0 to 100 (0 no effect, 100 complete control)
# [10] = Postemergence, 250 g ai/ha, scale 0 to 100
# [11] = Postemergence, 500 g ai/ha, scale 0 to 100
# [12] = Preemergence, 16 g ai/ha, scale 0 to 100, 0 no effect, 100 complete control
# [13] = Preemergence, 31 g ai/ha, scale 0 to 100, 0 no effect, 100 complete control
# [14] = Preemergence, 62 g ai/ha, scale 0 to 100, 0 no effect, 100 complete control
# [15] = Preemergence, 125 g ai/ha, scale 0 to 100
# [16] = Preemergence, 250 g ai/ha, scale 0 to 100
# [17] = Preemergence, 500 g ai/ha, scale 0 to 100
smiles,measurement,setting,value
CCOC(=O)c1nc(-c2ccc(Cl)cc2)nc(N)c1Br [Compound 37],Chickweed plant response rating,[1]; [6],0
same,Chickweed plant response rating,[1]; [7],0
same,"Plant response rating, Chickweed",[1]; 250 g ai/ha,0
same,"Plant response rating, Chickweed",[1]; 500 g ai/ha,0
same,"Foxtail, Giant plant response rating",[2]; [8],0
same,"Foxtail, Giant plant response rating",[2]; [9],0
same,"Plant response rating, Foxtail, Giant",[2]; [10],40
same,"Plant response rating, Foxtail, Giant",[2]; [11],45
same,Crabgrass plant response rating,[3]; [8],0
same,Crabgrass plant response rating,[3]; [9],15
same,"Plant response rating, Crabgrass",[3]; [10],40
same,"Plant response rating, Crabgrass",[3]; [11],60
same,"Nutsedge, Yellow plant response rating",[4]; [8],0
same,"Nutsedge, Yellow plant response rating",[4]; [9],0
same,"Plant response rating, Nutsedge, Yellow",[4]; [10],0
same,"Plant response rating, Nutsedge, Yellow",[4]; [11],20
same,Surinam Grass plant response rating,[5]; [8],0
same,Surinam Grass plant response rating,[5]; [9],0
same,"Plant response rating, Surinam Grass",[5]; [10],0
same,"Plant response rating, Surinam Grass",[5]; [11],0
CCOC(=O)c1nc(C2CC2)nc(NN)c1Br [Compound 42],pest or weed control at 31 g/ha,"[1]; Stellaria media, post-emergence, 31 g ai/ha, read-out: Plant response rating (scale of 0 to 100), Chickweed",0%
same,pest or weed control at 62 g/ha,"[1]; Stellaria media, post-emergence, 62 g ai/ha, scale 0 to 100 (0 no effect, 100 complete control), read-out: Chickweed plant response rating",0%
same,pest or weed control at 125 g/ha,"[1]; Stellaria media, post-emergence, 125 g ai/ha, scale 0 to 100 (0 no effect, 100 complete control), read-out: Chickweed plant response rating",0%
same,pest or weed control at 250 g/ha,"[1]; Stellaria media, post-emergence, 250 g ai/ha, scale 0 to 100, read-out: Plant response rating, Chickweed",10%
same,pest or weed control at 125 g/ha,"[2]; Setaria faberi, post-emergence, Postemergence, 125 g ai/ha, scale 0 to 100 (0 no effect, 100 complete control), read-out: Foxtail, Giant plant response rating",0%
same,pest or weed control at 31 g/ha,"[2]; Setaria faberi, post-emergence, Postemergence, 31 g ai/ha, read-out: Plant response rating (scale of 0 to 100), Foxtail, Giant",0%
same,pest or weed control at 62 g/ha,"[2]; Setaria faberi, post-emergence, Postemergence, 62 g ai/ha, scale 0 to 100 (0 no effect, 100 complete control), read-out: Foxtail, Giant plant response rating",0%
same,pest or weed control at 250 g/ha,"[2]; Setaria faberi, post-emergence, Postemergence, 250 g ai/ha, scale 0 to 100, read-out: Plant response rating, Foxtail, Giant",0%
same,pest or weed control at 31 g/ha,"[3]; Digitaria sanguinalis, post-emergence, Postemergence, 31 g ai/ha, read-out: Plant response rating (scale of 0 to 100), Crabgrass",0%
same,pest or weed control at 62 g/ha,"[3]; Digitaria sanguinalis, post-emergence, Postemergence, 62 g ai/ha, scale 0 to 100 (0 no effect, 100 complete control), read-out: Crabgrass plant response rating",0%
same,pest or weed control at 125 g/ha,"[3]; Digitaria sanguinalis, post-emergence, Postemergence, 125 g ai/ha, scale 0 to 100 (0 no effect, 100 complete control), read-out: Crabgrass plant response rating",0%
same,pest or weed control at 250 g/ha,"[3]; Digitaria sanguinalis, post-emergence, Postemergence, 250 g ai/ha, scale 0 to 100, read-out: Plant response rating, Crabgrass",0%
same,pest or weed control at 31 g/ha,"[4]; Cyperus, post-emergence, Postemergence, 31 g ai/ha, read-out: Plant response rating (scale of 0 to 100), Nutsedge, Yellow",0%
same,pest or weed control at 62 g/ha,"[4]; Cyperus, post-emergence, Postemergence, 62 g ai/ha, scale 0 to 100 (0 no effect, 100 complete control), read-out: Nutsedge, Yellow plant response rating",0%
same,pest or weed control at 125 g/ha,"[4]; Cyperus, post-emergence, Postemergence, 125 g ai/ha, scale 0 to 100 (0 no effect, 100 complete control), read-out: Nutsedge, Yellow plant response rating",0%
same,pest or weed control at 250 g/ha,"[4]; Cyperus, post-emergence, Postemergence, 250 g ai/ha, scale 0 to 100, read-out: Plant response rating, Nutsedge, Yellow",0%
same,pest or weed control at 125 g/ha,"[5]; Urochloa decumbens, post-emergence, Postemergence, 125 g ai/ha, scale 0 to 100 (0 no effect, 100 complete control), read-out: Surinam Grass plant response rating",0%
same,pest or weed control at 31 g/ha,"[5]; Urochloa decumbens, post-emergence, Postemergence, 31 g ai/ha, read-out: Plant response rating (scale of 0 to 100), Surinam Grass",0%
same,pest or weed control at 62 g/ha,"[5]; Urochloa decumbens, post-emergence, Postemergence, 62 g ai/ha, scale 0 to 100 (0 no effect, 100 complete control), read-out: Surinam Grass plant response rating",0%
same,pest or weed control at 250 g/ha,"[5]; Urochloa decumbens, post-emergence, Postemergence, 250 g ai/ha, scale 0 to 100, read-out: Plant response rating, Surinam Grass",0%
CCOC(=O)C(OC(C)=O)c1nc(C2CC2)nc(N)c1Br (stereo not shown) [Compound 47],"Plant response rating (scale of 0 to 100), Chickweed",[1]; 16 g ai/ha,0
same,"Plant response rating (scale of 0 to 100), Chickweed",[1]; 31 g ai/ha,0
same,Chickweed plant response rating,[1]; [6],0
same,Chickweed plant response rating,[1]; [7],0
same,"Plant response rating (scale of 0 to 100), Foxtail, Giant","[2]; Postemergence, 16 g ai/ha",0
same,"Plant response rating (scale of 0 to 100), Foxtail, Giant","[2]; Postemergence, 31 g ai/ha",0
same,"Foxtail, Giant plant response rating",[2]; [8],0
same,"Foxtail, Giant plant response rating",[2]; [9],0
same,"Plant response rating, Foxtail, Giant",[2]; [12],0
same,"Plant response rating, Foxtail, Giant",[2]; [13],0
same,"Plant response rating, Foxtail, Giant",[2]; [14],0
same,"Plant response rating, Foxtail, Giant",[2]; [15],20
same,"Plant response rating (scale of 0 to 100), Crabgrass","[3]; Postemergence, 16 g ai/ha",0
same,"Plant response rating (scale of 0 to 100), Crabgrass","[3]; Postemergence, 31 g ai/ha",0
same,Crabgrass plant response rating,[3]; [8],0
same,Crabgrass plant response rating,[3]; [9],20
same,"Plant response rating, Crabgrass",[3]; [12],20
same,"Plant response rating, Crabgrass",[3]; [13],100
same,"Plant response rating, Crabgrass",[3]; [14],100
same,"Plant response rating, Crabgrass",[3]; [15],100
same,"Plant response rating (scale of 0 to 100), Nutsedge, Yellow","[4]; Postemergence, 16 g ai/ha",0
same,"Plant response rating (scale of 0 to 100), Nutsedge, Yellow","[4]; Postemergence, 31 g ai/ha",0
same,"Nutsedge, Yellow plant response rating",[4]; [8],0
same,"Nutsedge, Yellow plant response rating",[4]; [9],0
same,"Plant response rating, Nutsedge, Yellow",[4]; [12],0
same,"Plant response rating, Nutsedge, Yellow",[4]; [13],0
same,"Plant response rating, Nutsedge, Yellow",[4]; [14],0
same,"Plant response rating, Nutsedge, Yellow",[4]; [15],0
same,"Plant response rating (scale of 0 to 100), Surinam Grass","[5]; Postemergence, 16 g ai/ha",0
same,"Plant response rating (scale of 0 to 100), Surinam Grass","[5]; Postemergence, 31 g ai/ha",0
same,Surinam Grass plant response rating,[5]; [8],0
same,Surinam Grass plant response rating,[5]; [9],20
same,"Plant response rating, Surinam Grass",[5]; [12],0
same,"Plant response rating, Surinam Grass",[5]; [13],0
same,"Plant response rating, Surinam Grass",[5]; [14],0
same,"Plant response rating, Surinam Grass",[5]; [15],0
CNN=Cc1nc(C2CC2)nc(N)c1Br [Compound 49],Chickweed plant response rating,[1]; [6],0
same,Chickweed plant response rating,[1]; [7],0
same,"Plant response rating, Chickweed",[1]; 250 g ai/ha,40
same,"Plant response rating, Chickweed",[1]; 500 g ai/ha,45
same,"Foxtail, Giant plant response rating",[2]; [8],0
same,"Foxtail, Giant plant response rating",[2]; [9],0
same,"Plant response rating, Foxtail, Giant",[2]; [10],0
same,"Plant response rating, Foxtail, Giant",[2]; [11],0
same,"Plant response rating, Foxtail, Giant",[2]; [14],0
same,"Plant response rating, Foxtail, Giant",[2]; [15],0
same,"Plant response rating, Foxtail, Giant",[2]; [16],0
same,"Plant response rating, Foxtail, Giant",[2]; [17],65
same,Crabgrass plant response rating,[3]; [8],0
same,Crabgrass plant response rating,[3]; [9],65
same,"Plant response rating, Crabgrass",[3]; [10],75
same,"Plant response rating, Crabgrass",[3]; [11],95
same,"Plant response rating, Crabgrass",[3]; [14],95
same,"Plant response rating, Crabgrass",[3]; [15],95
same,"Plant response rating, Crabgrass",[3]; [16],95
same,"Plant response rating, Crabgrass",[3]; [17],100
same,"Nutsedge, Yellow plant response rating",[4]; [8],0
same,"Nutsedge, Yellow plant response rating",[4]; [9],0
same,"Plant response rating, Nutsedge, Yellow",[4]; [10],0
same,"Plant response rating, Nutsedge, Yellow",[4]; [11],0
same,"Plant response rating, Nutsedge, Yellow",[4]; [14],0
same,"Plant response rating, Nutsedge, Yellow",[4]; [15],0
same,"Plant response rating, Nutsedge, Yellow",[4]; [16],0
same,"Plant response rating, Nutsedge, Yellow",[4]; [17],0
same,Surinam Grass plant response rating,[5]; [8],0
same,Surinam Grass plant response rating,[5]; [9],0
same,"Plant response rating, Surinam Grass",[5]; [10],40
same,"Plant response rating, Surinam Grass",[5]; [11],45
same,"Plant response rating, Surinam Grass",[5]; [14],0
same,"Plant response rating, Surinam Grass",[5]; [15],15
same,"Plant response rating, Surinam Grass",[5]; [16],40
same,"Plant response rating, Surinam Grass",[5]; [17],65

# From patent US8802597B2, “Herbicidal pyrimidines” (E I du Pont de Nemours and Company, priority 2003, dated 2014)
